Patent publication US20230331691A1, “TREPROSTINIL DERIVATIVE COMPOUNDS AND METHODS OF USING SAME” (CORSAIR PHARMA, INC., priority 2013, published 2023)

How the values were obtained:
[1] = Human hepatocyte stability assay (Test 4); type: in vitro ADME; conditions: cryopreserved human hepatocytes; human hepatocytes 0.5 million cells/mL, 0.5 uM test compound, 37° C., up to 240 minutes; read-out: Test 4 T½
Description: (Test 4) Human hepatocyte stability assay was conducted by incubating 0.5 uM test compound at 37° C. for up to 240 minutes. Cryopreserved human hepatocytes were obtained from Celsis IVT ( Baltimore, Maryland). Cells were thawed according to vendor’s instructions and were suspended in William’s Medium E to 0.5 million cells/mL. Test compounds were spiked into the cell suspension to initiate the reactions. At 0, 10, 30, 60, 120 and 240 min., an aliquot was taken, quenched with internal standard containing stop solution. After incubation, the samples were analyzed by LC-MS/MS. Peak area ratios of analyte to internal standard were used to calculate the intrinsic clearance. The intrinsic clearance (CLint) was determined from the first order elimination constant by non-linear regression. Formation of the active drug Compound A over the time course was also monitored by LC-MS/MS analysis.

[2] = Human plasma stability assay (Test 2); type: in vitro ADME; conditions: heparinated human plasma, 0.5 uM test compound, 37° C., up to 120 minutes; read-out: Test 2 T½
Description: (Test 2) Human plasma stability assay was conducted by incubating 0.5 uM test compounds at 37° C. for up to 120 minutes in heparinated human plasma. At 0, 5, 15, 30, 60 and 120 […] min., an aliquot was taken, quenched with internal standard containing stop solution. After incubation, the samples were analyzed by LC-MS/MS. Peak area ratios of analyte to internal standard were used to calculate the half-life. Formation of the active drug Compound A over the time course was also monitored by LC-MS/MS analysis.

[3] = Human liver microsomal stability assay (Test 1); type: in vitro ADME; conditions: human liver microsomes, 0.5 uM test compound, 37° C., up to 45 minutes, pH 7.4, NADPH generating system; read-out: Test 1 T½
Description: (§1) (Test 1) Human liver microsomal stability assay was conducted by incubating 0.5 uM test compounds at 37° C. for up to 45 minutes in 50 mM of potassium phosphate buffer (pH 7.4) containing 0.5 mg of microsomal protein and 50 µL of NADPH generating system (7.8 mg of glucose 6-phosphate, 1.7 mg of NADPH and 6 U of glucose 6-phosphate dehydrogenase per mL in 2% w/v of sodium bicarbonate). At 0, 5, 15, 30 and 45 min., an aliquot was taken, quenched with internal standard containing stop solution. No co-factor controls at 45 minutes were also prepared. After incubation, the samples were analyzed by LC-MS/MS. Peak area ratios of analyte to internal standard were used to calculate the intrinsic clearance. The intrinsic clearance (CLint) was determined from the first order elimination constant by non-linear regression. Formation of the active drug Compound A over the time course was also monitored by LC-MS/MS analysis.

[4] = Human skin homogenate stability assay (Test 3); type: in vitro ADME; conditions: 0.5 uM test compound, 37° C., up to 45 minutes, pH 7.4, NADPH generating system, read-out: Test 3 T½
Description: as §1, with “3)” for “1)”, “skin homogenate” for “liver microsomal”, “conducted in a similar way as the human liver microsomal stability assay,” for “conducted”, “human skin homogenate” for “microsomal”

[5] = treprostinil as the free acid, cited from earlier work

| half-life at 0.5 uM [1] | half-life at 0.5 uM [2] | half-life at 0.5 uM [3] | half-life at 0.5 uM [4] | Compound | absolute oral bioavailability ([5]; oral) | systemic half life ([5]; due to significant metabolism) |
| --- | --- | --- | --- | --- | --- | --- |
| – | 15 to 30 min | < 15 min | 15 to 30 min | CCCCC[C@H](O)CC[C@@H]1[C@H]2Cc3cccc(OCC(=O)OCC(C)(C)C)c3C[C@H]2C[C@H]1O [Compound 16, [2-Hydroxy-1-(3-hydroxy-octyl)-2,3,3a,4,9,9a-hexahydro-1H-cyclopenta[b]naphthalen-5-yloxy]-acetic acid 2,2-dimethyl-propyl ester] | – | – |
| – | > 60 min | < 15 min | > 60 min | CCCCCCCCOC(=O)COc1cccc2c1C[C@H]1C[C@@H](O)[C@H](CC[C@@H](O)CCCCC)[C@H]1C2 [Compound 64] | – | – |
| – | > 60 min | < 15 min | 31 to 60 min | CCCCC[C@H](O)CC[C@@H]1[C@H]2Cc3cccc(OCC(=O)OC)c3C[C@H]2C[C@H]1OC(=O)OCC [Compound 25, [2-Ethoxycarbonyloxy-1-(3-hydroxy-octyl)-2,3,3a,4,9,9a-hexahydro-1H-cyclopenta[b]naphthalen-5-yloxy]-acetic acid methyl ester] | – | – |
| – | 15 to 30 min | < 15 min | 31 to 60 min | CCCCC[C@H](O)CC[C@@H]1[C@H]2Cc3cccc(OCC(=O)O[C@@H](C)CC)c3C[C@H]2C[C@H]1O [Compound 61] | – | – |
| – | 31 to 60 min | < 15 min | 15 to 30 min | CCCCC[C@H](O)CC[C@@H]1[C@H]2Cc3cccc(OCC(=O)OC4CC5CCC4C5)c3C[C@H]2C[C@H]1O (stereo partly drawn) [Compound 19, [2-Hydroxy-1-(3-hydroxy-octyl)-2,3,3a,4,9,9a-hexahydro-1H-cyclopenta[b]naphthalen-5-yloxy]-acetic acid bicyclo[2.2.1]hept-2-yl ester] | – | – |

Second part, the molecule before the results:

| Compound | half-life at 0.5 uM [1] | half-life at 0.5 uM [2] | half-life at 0.5 uM [3] | half-life at 0.5 uM [4] | absolute oral bioavailability ([5]; oral) | systemic half life ([5]; due to significant metabolism) |
| --- | --- | --- | --- | --- | --- | --- |
| CCCCC[C@H](O)CC[C@@H]1[C@H]2Cc3cccc(OCC(=O)NCCO)c3C[C@H]2C[C@H]1O [Compound 7, N-(2-Hydroxy-ethyl)-2-[2-hydroxy-1-(3-hydroxy-octyl)-2,3,3a,4,9,9a-hexahydro-1H-cyclopenta[b]naphthalen-5-yloxy]-acetamide] | 15 to 30 min | > 60 min | 15 to 30 min | – | – | – |
| CCCCC[C@H](O)CC[C@@H]1[C@H]2Cc3cccc(OCC(=O)NCC(F)(F)F)c3C[C@H]2C[C@H]1O [Compound 14, 2-[2-Hydroxy-1-(3-hydroxy-octyl)-2,3,3a,4,9,9a-hexahydro-1H-cyclopenta[b]naphthalen-5-yloxy]-N-(2,2,2-trifluoro-ethyl)-acetamide] | < 15 min | > 60 min | < 15 min | > 60 min | – | – |
| CCCCC[C@H](O)CC[C@@H]1[C@H]2Cc3cccc(OCC(=O)N(C)CC(=O)OC)c3C[C@H]2C[C@H]1O [Compound 13, ({2-[2-Hydroxy-1-(3-hydroxy-octyl)-2,3,3a,4,9,9a-hexahydro-1H-cyclopenta[b]naphthalen-5-yloxy]-acetyl}-methyl-amino)-acetic acid methyl ester] | < 15 min | > 60 min | < 15 min | – | – | – |
| CCCCC[C@H](O)CC[C@@H]1[C@H]2Cc3cccc(OCC(=O)OC)c3C[C@H]2C[C@H]1O [Compound 15, [2-Hydroxy-1-(3-hydroxy-octyl)-2,3,3a,4,9,9a-hexahydro-1H-cyclopenta[b]naphthalen-5-yloxy]-acetic acid methyl ester] | – | < 15 min | < 15 min | < 15 min | – | – |
| CCCCC[C@H](O)CC[C@@H]1[C@H]2Cc3cccc(OCC(=O)NCC4CC4)c3C[C@H]2C[C@H]1O [Compound 2, N-Cyclopropylmethyl-2-[2-hydroxy-1-(3-hydroxy-octyl)-2,3,3a,4,9,9a-hexahydro-1H-cyclopenta[b]naphthalen-5-yloxy]-acetamide] | 31 to 60 min | > 60 min | < 15 min | – | – | – |
| CCCCC[C@H](O)CC[C@@H]1[C@H]2Cc3cccc(OCC(=O)OC)c3C[C@H]2C[C@H]1OC(C)=O [Compound 26, [2-Acetoxy-1-(3-hydroxy-octyl)-2,3,3a,4,9,9a-hexahydro-1H-cyclopenta[b]naphthalen-5-yloxy]-acetic acid methyl ester] | – | 15 to 30 min | < 15 min | 15 to 30 min | – | – |
| CCCCC[C@H](O)CC[C@@H]1[C@H]2Cc3cccc(OCC(=O)O)c3C[C@H]2C[C@H]1O [treprostinil] | – | – | – | – | less than 10% | very short |
